These results are taken from US20060100226A1, “2-Thiopyrimidinones as therapeutic agents” (priority 2004, published 2006).

A value given as a limit tells only on which side of the number the result lay.

The first test deals with T1, murine MEKK2 (mMEKK2) (Mus musculus, UniProt Q61083).
T1 sequence (Q61083 1-619): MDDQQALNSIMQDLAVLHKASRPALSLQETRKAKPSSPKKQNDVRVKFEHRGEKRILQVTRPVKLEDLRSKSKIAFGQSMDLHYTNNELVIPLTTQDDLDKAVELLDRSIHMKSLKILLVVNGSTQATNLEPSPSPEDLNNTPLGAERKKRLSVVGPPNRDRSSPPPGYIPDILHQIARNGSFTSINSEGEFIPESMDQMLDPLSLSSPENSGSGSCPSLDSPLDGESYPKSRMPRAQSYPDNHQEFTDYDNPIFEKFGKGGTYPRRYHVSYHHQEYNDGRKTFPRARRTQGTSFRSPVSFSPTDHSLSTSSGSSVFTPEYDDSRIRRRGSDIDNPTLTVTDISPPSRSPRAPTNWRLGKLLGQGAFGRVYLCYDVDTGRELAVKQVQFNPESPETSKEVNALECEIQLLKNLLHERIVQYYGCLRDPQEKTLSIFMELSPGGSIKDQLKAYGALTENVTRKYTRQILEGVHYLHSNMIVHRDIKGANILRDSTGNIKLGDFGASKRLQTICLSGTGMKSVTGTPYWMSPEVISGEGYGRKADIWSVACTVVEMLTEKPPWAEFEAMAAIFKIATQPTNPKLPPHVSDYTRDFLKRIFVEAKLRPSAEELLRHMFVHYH
Nature of the test: TR-FRET kinase assay (mMEKK2/MBP). The format is biochemical. The following applies: substrate biotin MBP, 60 minutes at room temperature. The procedure:
In one approach, MEKK2 inhibitory activity of compounds of the invention can be assessed using the time-resolved Fluorescence Resonance Energy Transfer (TR-FRET) assay detailed in Example 5. In this assay, the excitation energy of one fluorescent molecule (the donor) is transferred by a resonance mechanism to a nearby second fluorescent molecule (the acceptor), which then releases its fluorescent energy through fluorescent emission. This fluorescent energy is measured using a time-resolved fluorescence measurement protocol (LANCE high count 615/665); excitation occurred with 1,000 flashes at 325 nm, measurement was delayed by 100 μs, and data were acquired for 50 μs at 615 and 665 nm.
A TR-FRET kinase assay was used to screen potential inhibitors of MEKK2. The assay was performed as follows: Compounds to be tested were weighed and solubilized in DMSO (Sigma) to a stock concentration of 10 mM. Serial dilutions starting from 1 mM were prepared with additional DMSO. These dilutions were further diluted to 250 μM in kinase reaction buffer [20 mM Hepes pH 7.5, 5 mM MgCl2, 1 mM DTT (Dithiothreitol-Sigma), 1 mM NaVO4 (sodium vanadate-Sigma). A 25 μl aliquot of this solution was transferred to a black 96-well nonbinding surface microplate (Fisher). A stock aliquot containing […] of murine MEKK2 (mMEKK2) was diluted in the kinase reaction buffer and incubated with the compounds on the microplate for 10 minutes. A 25 μl aliquot of a 138 ng solution of biotin MBP (myelin basic protein—Upstate Biotechnology) was added to the reaction followed by 25 ul of a 25 ng solution of anti-phospho MBP antibody (Upstate Biotechnology) diluted in kinase reaction buffer. Finally an aliquot (50 μl) of a 5 uM solution of ATP (adenosine triphosphate) was added and the reaction was allowed to proceed for 60 minutes at room temperature. The reaction was stopped by the addition of 50 μL of a 12.5 ng solution of europium labeled anti-mouse IgG (Perkin Elmer) and 45 ng of Cy5 labeled streptavidin (Jackson Immunoresearch) in termination buffer (20 mM Hepes pH 7.5, 100 mM EDTA; Sigma). The assay was allowed to equilibrate for 45 minutes before placing the plate on the Victor™ plate reader. The plate was read using the 615/665 LANCE protocol.
As for `COc1cccc(-c2nc(SCc3cccc(NC(=O)c4csc(Cl)c4OC)c3)[nH]c(=O)c2C#N)c1` [Example 2v], the half-inhibitory concentration (IC50) was < 20 µM.
As to `COc1cccc(-c2nc(SCc3cccc(NC(=O)NC4CCCC4)c3)[nH]c(=O)c2C#N)c1` [Example 3f], the IC50 was < 5 µM.
For the compound `COc1cccc(-c2nc(SCc3cccc(NC(=O)NCCc4ccc5c(c4)OCO5)c3)[nH]c(=O)c2C#N)c1` [Example 3k], the IC50 is < 10 µM.
Regarding `COc1cccc(-c2nc(SCc3cccc(NC(=O)c4cnn(C)c4Cl)c3)[nH]c(=O)c2C#N)c1` [Example 2t], the concentration for half-maximal inhibition (IC50) was < 40 µM.
The same measure, in the same setting: with `COc1cccc(-c2nc(SCc3cccc(NCc4c[nH]c5ccc(Cl)cc45)c3)[nH]c(=O)c2C#N)c1` [Example 1x] the figure was < 1 µM.
In the case of `COc1cccc(-c2nc(SCc3cccc(NC(=O)NCc4ccccc4)c3)[nH]c(=O)c2C#N)c1` [Example 3c], the IC50 was < 5 µM.
Regarding `COc1cccc(-c2nc(SCc3ccc(NC(=O)c4ccccc4)cc3)[nH]c(=O)c2C#N)c1` [Example 2pp], the half-maximal inhibitory concentration (IC50) was < 20 µM.
In the case of `COc1cccc(-c2nc(SCc3ccc(NC(=O)c4ccc(C(F)(F)F)cc4C(F)(F)F)cc3)[nH]c(=O)c2C#N)c1` [Example 2ggg], the half-maximal inhibitory concentration (IC50) is < 5 µM.
Turning to `COc1cccc(-c2nc(SCc3ccc(NC(=O)NCCc4cccs4)cc3)[nH]c(=O)c2C#N)c1` [Example 3w], the half-maximal inhibitory concentration (IC50) is < 5 µM.
Turning to `COc1cccc(-c2nc(SCCCCCn3cnc4c(NCc5ccccc5)ncnc43)[nH]c(=O)c2C#N)c1` [Example 4h], the IC50 is > 40 µM.
For `CCc1nc(C)c(CNc2cccc(CSc3nc(-c4cccc(OC)c4)c(C#N)c(=O)[nH]3)c2)[nH]1` [Example 4e], the IC50 was > 40 µM.
Consider `COc1cccc(-c2nc(SCc3cccc(NCc4cccn4CCC#N)c3)[nH]c(=O)c2C#N)c1` [Example 1l], for which the IC50 is < 20 µM.
Still for that read-out and setting: next, `COc1cccc(-c2nc(SCc3ccc(NC(=O)c4ccc(-c5ccccn5)s4)cc3)[nH]c(=O)c2C#N)c1` [Example 2lll]: < 5 µM.

The target of another test is T1, murine MEKK2 (mMEKK2). Nature of the test: MEKK2 PhosphoELISA (mMEKK2/MKK4). The format is biochemical. The note with it: substrate MKK4/SKK1 (unactive), ATP final 10 μM, O.D. 450 nm. An excerpt: Another useful method for assessing protein kinase inhibition, and specifically MEKK2 inhibition, of compounds of the invention involves the MEKK2 phospho-antibody enzyme-linked immunosorbent assay (PhosphoELISA). This screening panel, which involves relatively few steps, is a useful indicator of potential inhibitors of MEKK2. Reactions to murine MEKK2 are observed as optical density measurements at an absorbance of 450 nm. Inhibitory activities can be expressed in terms of IC50, where IC50 is the molar concentration of compound required to inhibit protein kinase binding by 50%.
A phospho-antibody enzyme-linked immunosorbent assay (PhosphoELISA) was used to screen potential inhibitors of MEKK2. The assay was performed as follows: Compounds to be tested were weighed and solubilized in DMSO (Sigma) to a stock concentration of 10 mM. Serial dilutions starting from 1 mM were prepared with additional DMSO. These dilutions were further diluted to 250 μM in kinase reaction buffer [20 mM Hepes pH 7.5, 5 mM MgCl2, 1 mM DTT (Dithiothreitol-Sigma), 1 mM NaVO4 (sodium vanadate- Sigma). A 25 μl aliquot of this solution was transferred to a glutathione coated 96-well microplate (Pierce). A stock aliquot containing 50-125 ng of murine MEKK2 (mMEKK2) was added to each well and incubated on the microplate for 10 minutes at room temperature. A 25 μl solution of MKK4/SKK1 (unactive) was diluted 1:200 in kinase assay buffer and added to the reaction plate followed by 50 μl of 25 μM ATP (adenosine triphosphate) to afford a final well concentration of 10 μM. The reaction was allowed to proceed for 60 minutes at room temperature before washing 3 times with wash buffer [100 mM phosphate pH 7.5, 0.05% TWEEN 20 (Sigma)]. A solution of anti-phospho MKK4/SEK1 antibody (Calbiochem) and biotin anti rabbit IgG (Jackson Immunoresearch) was diluted 1:2500 in kinase reaction buffer and added to the appropriate wells. The reaction was incubated for 60 minutes at room temperature. The microplate was washed 3 times with wash buffer and 100 ul of streptavidin horseradish peroxidase (HRP-Pierce) was added and incubated for 30 minutes at room temperature. The microplate was washed 3 times with wash buffer and 100 μl of TMB (3,3′,5,5′-tetramethylbenzidine-Sigma) was added. The assay was allowed to develop for 15-20 minutes then the reaction was stopped with the addition of 100 μl of 0.2 N sulfuric acid. The optical density (O.D.) of the plate was read on the Victor™ plate reader using the absorbance at 450 nm.
With `COc1cccc(-c2nc(SCCCn3cnc(NC(=O)c4ccc(Cl)c(Cl)c4)n3)[nH]c(=O)c2C#N)c1` [Example 4ff], the concentration for half-maximal inhibition (IC50) was > 40 µM.
Compound `CN(CCOc1ccc(-c2nc(SCc3cccc(NC(=O)c4ccc(Cl)c(Cl)c4)c3)[nH]c(=O)c2C#N)cc1)c1ccncc1` [Example 4aa] yielded an IC50 of 20 µM.
The same measure, in the same setting: with `COc1cccc(-c2nc(SCc3cccc(NCc4cnc(O)nc4O)c3)[nH]c(=O)c2C#N)c1` [Example 4d] the figure was > 40 µM; with `COc1cccc(-c2nc(SCCCn3cnc4c(NC(=O)c5ccccc5)ncnc43)[nH]c(=O)c2C#N)c1` [Example 4ee], > 40 µM; with `CCN(CC)CCOc1ccc(-c2nc(SCc3cccc(NC(=O)c4ccc(Cl)c(Cl)c4)c3)[nH]c(=O)c2C#N)cc1` [Example 4z], > 40 µM.
Consider `COc1cccc(-c2nc(SCc3cccc(NC(=O)c4ccc(F)c(F)c4)c3)[nH]c(=O)c2C#N)c1` [Example 2oo, N-{3-[5-Cyano-4-(3-methoxy-phenyl)-6-oxo-1,6-dihydro-pyrimidin-2-ylsulfanylmethyl]-phenyl}-3,4-difluoro-benzamide], for which the half-inhibitory concentration (IC50) is < 5 µM.
The same measure, in the same setting: next, `N#Cc1c(-c2cccc(C(=O)O)c2)nc(SCc2cccc(NC(=O)c3ccc(Cl)c(Cl)c3)c2)[nH]c1=O` [Example 4m]: < 20 µM; `N#Cc1c(-c2cccc(-n3cccc3)c2)nc(SCc2cccc(NC(=O)c3ccc(Cl)c(Cl)c3)c2)[nH]c1=O` [Example 4q]: < 1 µM; `N#Cc1c(-c2c[nH]c3ccc(Br)cc23)nc(SCc2cccc(NC(=O)c3ccc(Cl)c(Cl)c3)c2)[nH]c1=O` [Example 2mm, N-{3-[4-(5-Bromo-1H-indol-3-yl)-5-cyano-6-oxo-1,6-dihydro-pyrimidin-2-ylsulfanylmethyl]-phenyl}-3,4-dichloro-benzamide]: < 1 µM.
For `COc1cccc(-c2nc(SCc3cccc(NC(=O)Nc4ccc(Cl)c(Cl)c4)c3)[nH]c(=O)c2C#N)c1` [Example 3a, 1-{3-[5-Cyano-4-(3-methoxy-phenyl)-6-oxo-1,6-dihydro-pyrimidin-2-ylsulfanylmethyl]-phenyl}-3-(3,4-dichloro-phenyl)-urea], the half-maximal inhibitory concentration (IC50) was < 1 µM.
The same measure, in the same setting: with `N#Cc1c(-c2cccc(Br)c2)nc(SCc2cccc(NC(=O)c3ccc(Cl)c(Cl)c3)c2)[nH]c1=O` [Example 2nn, N-{3-[4-(3-Bromo-phenyl)-5-cyano-6-oxo-1,6-dihydro-pyrimidin-2-ylsulfanylmethyl]-phenyl}-3,4-dichloro-benzamide] the figure was < 1 µM; with `N#Cc1c(-c2cccc(-n3ccnc3)c2)nc(SCc2cccc(NC(=O)c3ccc(Cl)c(Cl)c3)c2)[nH]c1=O` [Example 4u], < 10 µM.
Take `N#Cc1c(-c2c[nH]c3ccccc23)nc(SCc2cccc(NC(=O)c3ccc(Cl)c(Cl)c3)c2)[nH]c1=O` [Example 2ll, 3,4-Dichloro-N-{3-[5-cyano-4-(1H-indol-3-yl)-6-oxo-1,6-dihydro-pyrimidin-2-ylsulfanylmethyl]-phenyl}-benzamide]: the IC50 was < 5 µM.
`N#Cc1c(-c2cccc(OC(F)(F)F)c2)nc(SCc2cccc(NC(=O)c3ccc(Cl)c(Cl)c3)c2)[nH]c1=O` [Example 2cc, 3,4-Dichloro-N-{3-[5-cyano-6-oxo-4-(3-trifluoromethoxy-phenyl)-1,6-dihydro-pyrimidin-2-ylsulfanylmethyl]-phenyl}-benzamide]: the IC50 was < 1 µM.
As for `N#Cc1c(-c2ccc(-n3ccnc3)cc2)nc(SCc2cccc(NC(=O)c3ccc(Cl)c(Cl)c3)c2)[nH]c1=O` [Example 4r], the half-inhibitory concentration (IC50) was < 5 µM.
As for `CC(C)(C)OC(=O)n1c(-c2cccc(-c3nc(SCc4cccc(NC(=O)c5ccc(Cl)c(Cl)c5)c4)[nH]c(=O)c3C#N)c2)cc2ccccc21` [Example 2jj, 2-(3-{5-Cyano-2-[3-(3,4-dichloro-benzoylamino)-benzylsulfanyl]-6-oxo-1,6-dihydro-pyrimidin-4-yl}-phenyl)-indole-1-carboxylic acid tert-butyl ester], the IC50 was < 1 µM.
